Source: US10934305B2, “SHMT inhibitors” (The Trustees of Princeton University, priority 2016, dated 2021)

Key:
human SHMT2 = human SHMT2 (Homo sapiens (Human), UniProt P34897); experiment: SHMT2 in vitro enzymatic assay (coupled with MTHFD2, NADH absorption at 340 nm); format: biochemical; details: SHMT2 IC50 (μM), Table 2
Procedure: Inhibition of human SHMT by compounds in this disclosure is evaluated, for example, in their racemic forms in an in vitro assay.
For the SHMT1 and SHMT2 in vitro enzymatic assays, the rate of 5,10-methylene tetrahydrofolate formation catalyzed by SHMT1/2 was indirectly evaluated by coupling with excess MTHFD2, which converts NAD+ to NADH allowing for reaction monitoring by absorption at 340 nm. […] Inhibition of initial reaction velocity was determined by adding various inhibitors at different concentrations and monitored as described. IC50 may be calculated based on this assay.

HCT116 cells [1] = experiment: Formate rescue assay in cell growth assay; format: cell-based, human; details: for rescue of effects on cell growth by addition of formate: Table 5 cells
Procedure: Application of formate is shown to rescue the anti-growth effect in certain human cells treated with SHMT inhibitors in a cell growth assay.
(§1) The described cell lines for Examples 8 and 9 are cultured in 96-well plates in Dulbecco's modified eagle media (DMEM) without pyruvate (CELLGRO) with 10% dialysed fetal bovine serum (Invitrogen) in 5% CO2 at 37° C. Approximately 2,500 cells are plated in each well in 90 uL of media. After 24 hours cells are treated with various concentrations of inhibitor (time=0 hours), with or without formate. Growth was assessed at multiple time points (time=0, 24, 48, 72 hours) through measurement of fluorescence at 595 nm (excitation at 535 nm) on a BioTek micro titer plate reader after incubation with resazurin (0.01 mg/mL for 1.5 hours). IC50 curves are generated from percent inhibition of growth at 72 hours.

HCT116 cells [2] = experiment: Cell growth assay (resazurin), HCT116 wild-type; format: cell-based, human
Procedure: (§2) Inhibitors of SHMT were evaluated in various cancer cell lines, in the presence and absence of mutations in mitochondrial folate pathway enzymes.
as §1

[3] = tested on: SHMT2 knock-out HCT116 cells; experiment: Cell growth assay, SHMT2 deletion (knock-out) HCT-116 cells; format: cell-based, human; details: FIG. 3B
Procedure: as §2, §1
Clonal deletion cell lines of SHMT1, SHMT2, and SHMT1/2 were generated from the human colorectal carcinoma cell line HCT-116. Paired Cas9 nickase (Cas9n) containing constructs that encoded single-guide RNA sequences targeting SHMT1 or 2 were transiently transfected into cells, and mutant colonies from single clones were picked as described in Ducker et al., (2016) Reversal of Cytosolic One-Carbon Flux Compensates for Loss of the Mitochondrial Folate Pathway, Cell Metab 23, 1140-1153. […]

Su-DHL-2 cells = experiment: Cellular growth assay (cell count), Su-DHL-2 DLBCL line; format: cell-based, human; details: Su-DHL-2, 5 μM inhibitor + 1 mM formate
Procedure: (§3) Jurkat, REH, Farage, Daudi, Su-DHL2, Su-DHL-4, Su-DHL-6 cells were purchased from ATCC. Cells were subcultured in RPMI supplemented with 10% FBS. For growth assays, cells were seeded at 2×10^5/mL in 5 mL growth media in 12.5 cm flasks. Media was supplemented with sodium formate (1 mM), additional glycine (100 mg/L) and an SHMTi (5 uM). Cells were sampled daily, and counted using trypan blue staining and light microscopy.

Jurkat cells = experiment: Cellular growth assay, Jurkat T-cell leukemia line; format: cell-based, human; details: 5 μM inhibitor + 1 mM sodium formate
Procedure: as §3

Su-DHL4 cells [4] = experiment: Apoptosis by flow cytometry (Annexin V surface staining); format: cell-based, human
Excerpt: Apoptosis was enhanced by co-treatment with formate. In contrast, as expected, formate rescued Jurkat E6-1 leukemia cells from apoptosis (FIG. 11C). Without wishing to be bound by theory, it is hypothesized that the failure of formate to rescue growth in the DLBCL cell lines is due to a requirement for both glycine and 1C units made by SHMT in these cells. When glycine is limiting, formate can enhance the cytotoxicity of SHMT inhibition. […] Mechanistically, by supplying 5,10-methylene-THF, formate may drives residual SHMT enzymatic function in the […] direction.
In contrast, cell growth is further decreased in Su-DHL4 cells by addition of formate. This can be further exacerbated by removal of glycine from the media. […] Using flow cytometry, apoptosis of Su-DHL4 cells were studied with AnnexinV surface staining (FIGS. 12D and 12E).

8988T cells = experiment: Growth of pancreatic cancer cell line 8988T; format: cell-based, human; details: FIG. 9E
Su-DHL4 cells [5] = experiment: Cellular growth assay, Su-DHL4 DLBCL line; format: cell-based, human; details: SU-DHL4, RPMI, FIG. 12C
Procedure: as §3

human SHMT2, sequence (P34897 30-504): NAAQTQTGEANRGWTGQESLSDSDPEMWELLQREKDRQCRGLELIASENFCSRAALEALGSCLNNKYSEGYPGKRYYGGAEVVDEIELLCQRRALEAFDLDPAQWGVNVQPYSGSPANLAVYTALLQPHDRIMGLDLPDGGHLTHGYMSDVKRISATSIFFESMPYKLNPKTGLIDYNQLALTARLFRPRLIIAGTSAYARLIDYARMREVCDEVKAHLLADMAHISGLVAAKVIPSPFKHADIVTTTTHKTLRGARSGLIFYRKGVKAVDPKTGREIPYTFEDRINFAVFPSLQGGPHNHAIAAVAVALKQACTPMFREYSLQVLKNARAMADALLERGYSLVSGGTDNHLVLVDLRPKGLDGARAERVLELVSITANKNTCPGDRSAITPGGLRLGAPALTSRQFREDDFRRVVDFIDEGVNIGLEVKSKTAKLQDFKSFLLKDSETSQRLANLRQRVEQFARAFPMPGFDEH

Cc1n[nH]c2c1C(c1cc(C#CCCC(=O)O)cc(C(F)(F)F)c1)(C(C)C)C(C#N)=C(N)O2 (racemic) [1 (enantiomeric mixture)]
IC50 (human SHMT2): 0.00065 µM

Cc1n[nH]c2c1C(c1cc(C#CCCC(=O)O)cc(C(F)(F)F)c1)(C(C)C)C(C#N)=C(N)O2 (stereo not drawn) [1 (enatiomerically active peak)]
% formate rescue (HCT116 cells [1]; HCT cells, Table 2): 94.96%
IC50 (HCT116 cells [2]; Table 2, read-out: HCT Cell IC50): 1360 nM
IC50 (human SHMT2): 0.00079 µM

Cc1n[nH]c2c1C(c1cc(C#CCCCO)cc(C(F)(F)F)c1)(C(C)C)C(C#N)=C(N)O2 (stereo not drawn) [Compound 61, 6-amino-4-(3-(5-hydroxypent-1-yn-1-yl)-5-(trifluoromethyl)phenyl)-4-isopropyl-3-methyl-1,4-dihydropyrano[2,3-c]pyrazole-5-carbonitrile]
growth (proliferation) of HCT116 cells (HCT116 cells [2]; native HCT116, FIG. 3A): inhibited growth
growth of SHMT2 knock-out HCT116 cells versus native [3]: increased potency

Cc1n[nH]c2c1[C@@](c1cc(C(F)(F)F)cc(C(F)(F)F)c1)(C(C)C)C(C#N)=C(N)O2 [HK-16 (PK-2)]
rescue of growth inhibition by formate (Su-DHL-2 cells): not rescued
rescue of growth inhibition by formate (Jurkat cells): significantly rescued

Cc1n[nH]c2c1C(c1cc(N3CCCC3)cc(C(F)(F)F)c1)(C(C)C)C(C#N)=C(N)O2 (stereo not drawn) [HK-X1]
rescue of effects on cell growth by addition of formate (HCT116 cells [1]): rescued

Cc1n[nH]c2c1C(c1cc(CO)cc(-c3ccccc3)c1)(C(C)C)C(C#N)=C(N)O2 (stereo not drawn) [HK-X2]
rescue of effects on cell growth by addition of formate (HCT116 cells [1]): rescued
apoptotic fraction of cells (Su-DHL4 cells [4]; Su-DHL4, inhibitor alone (control 2%)): 8%
apoptotic fraction of cells (Su-DHL4 cells [4]; Su-DHL4, inhibitor in the presence of formate): 15%
apoptosis by Annexin V surface staining (Su-DHL4 cells [4]; Su-DHL-4): induced apoptosis
concentration impairing cell growth (8988T cells): < 100 nM
IC70 (Su-DHL4 cells [5]): 5000 nM
